Experimental data taken from patent publication US20090111177A1, “Maintenance of Embryonic Stem Cells by the GSK-3 Inhibitor 6-Bromoindirubin-3'-Oxime” (THE ROCKEFELLER UNIVERSITY, priority 2003, published 2009).

Key:
H1 cells = test: Differentiation of HESCs into neurons on PA6 stromal cells; type: cell-based, human; settings: comparable to conditioned medium-treated cells
Excerpt: Differentiation of ES cells into neurons. The PA6 stromal cell line (RIKEN) was used for the co-culture system (Kawasaki et al., 2002, Generation of dopaminergic neurons and pigmented epithelia from primate ES cells by stromal cell-derived inducing activity. Proc Natl Acad Sci USA 99, 1580-1585). H1 cell colonies grown on Matrigel under different conditions for 7 d were harvested and cultured (100˜200 cells/clump, approximately 5 clumps/well of a 12-well plate) on PA6 stromal cells in 90% Knockout-Dulecco's modified Eagle's medium, 10% KSR, 1 mM L-glutamine, 1% non-essential amino acids, 0.1 mM β-mercaptoethanol for 3 weeks as previously described (Sato et al., 2003, Molecular signature of human embryonic stem cells and its comparison with the mouse. Dev Biol 260, 404-413). At the end of the culture period, cells were stained with a neuron-specific antibody, Tuj-1, as shown below. The number of wells containing Tuj-1 positive neurons was determined in each condition in repeated experiments.

[1] = system: Oct-3/4 and Nanog transcripts; test: Northern analysis of HESCs; type: cell-based, human; settings: 7 d
Protocol: Northern analysis. Total RNA was isolated from cells by using Qiashredder and RNAeasy mini kit (Qiagen). The extracted RNA sample was quantified by UV spectrophotometer, and qualified by the RNA Nano Lab chip (Agilent Technologies). Ten μg of total RNA was electrophoresed on 1% agarose/formaldehyde gel and transferred onto a nylon membrane (Stratagene). Probes specific for human Oct-4 and human Nanog were prepared by RT-PCR using gene specific primer pairs (shown below) and the template cDNA generated from undifferentiated H1 cells, and radio-labeled with ^32P-dCTP by Prime-it probe labeling kit (Stratagene). The membrane was hybridized with the labeled probe using Perfecthybri (Sigma) and subjected to detection by Phosphor Imager (Amersham Biosciences).

Oct-3/4 = Oct-3/4 immunocytochemistry in HESCs; type: cell-based, human
Protocol: (§1) Cell culture. Human embryonic stem cells (HESCs) lines were provided by WiCell Research Institute (H1 line)^5 and BresaGen Inc. (BGN1 and BGN2 lines). H1 cells were cultivated on irradiated mouse embryonic fibroblasts (MEFs) in medium consisting of 80% DMEM/F12 medium, 20% knockout serum replacement (KSR), 1 mM L-glutamine, 1% non-essential amino acids, 0.1 mM β-mercaptoethanol, and 4 ng/ml basic FGF (all from Invitrogen). […] Subsequently, HESCs were cultured on Matrigel (BD biosciences) in medium conditioned by MEFs, and passaged several times until colonies became free from contaminating MEFs as described before^9.
Immunofluorescence. Cells were fixed in 4% paraformaldehyde for 20 min at room temperature and incubated overnight at 4° C. with primary antibodies against Oct-4 (BD Biosciences), β-catenin (BD Biosciences), Tuj-1 (BAbCO), cytokeratin (Sigma), glial fibrillary acidic protein, GFAP, (Dako), smooth muscle actin (Research Diagnostics Inc), α-fetoprotein (α-FP, Cell Sciences) and Tromal (Developmental Studies Hybridoma Bank). For nuclear localization analysis, the fixed samples were subjected to fluorescent digital confocal imaging analysis using a Zeiss LSM 510 confocal microscope (Carl Zeiss). For mouse embryonic tissue sections, mid gestation embryos were fixed in 4% paraformaldehyde followed by paraffin embedding and tissue sectioning. After deparaffinization, tissue sections were incubated with a GFP-specific antibody (Molecular Probe) at 4° C. overnight. Antigens were localized by using goat anti-mouse IgG conjugated to Cy3 or goat anti-rabbit IgG conjugated to Cy2 (Zymed laboratories). For the quantitative image analysis, fluorescent images from triplicate samples were taken by the Discovery1 system (Universal Imaging Corporation). The fluorescent objects were selected by the threshold function and evaluated in five regions of each well by quantification of pixel intensities and the object size by using MetaMorph software (Universal Imaging Corporation).

β-catenin = β-catenin immunofluorescence confocal analysis in HESCs; type: cell-based, human; settings: compared to non-conditioned medium treated cells, FIG. 2c
Protocol: as §1
Immunofluorescence. […] For the quantitative image analysis, fluorescent images from triplicate samples were taken by the Discovery1 system (Universal Imaging Corporation). The fluorescent objects were selected by the threshold function and evaluated in five regions of each well by quantification of pixel intensities and the object size by using MetaMorph software (Universal Imaging Corporation).

MESCs = test: Teratoma formation from treated MESCs in syngenic mice; type: in vivo, mouse; settings: MESCs grown in 1 μM, subcutaneous injection into syngenic mice
Protocol: Teratoma formation. We grew CJ-GFP cells at a low density (500 cells/cm^2) on gelatin-coated 10 cm dishes in medium containing 6-bromoindirubin-3′-oxime 1 μM for 7 d, then passaged cells at the same density and cultured under the same condition another 5 d to further enforce differentiation of cells. […] 6-bromoindirubin-3′-oxime-treated cells (approximately 5×10^6 cells/mouse) were subcutaneously injected into the left flank of syngenic 129 background mice. After three to five weeks, the developed teratoma (approximately 20 mm in diameter) was excised, fixed in 4% paraformaldehyde and subjected to hematoxylin and eosin staining for histological examinations.

CJ-GFP cells (MESCs) = test: Blastocyst injection of treated CJ-GFP cells, chimera generation; type: in vivo, mouse
Protocol: Blastocyst injection. We cultured CJ-GFP cells at a low density (500 cells/cm^2) on gelatin-coated 10 cm dishes in medium containing 6-bromoindirubin-3′-oxime 1 μM for 5 d. 6-bromoindirubin-3′-oxime-treated cells (approximately 10 to 15 cells per blastocyst) were microinjected into each blastocyst and transferred into surrogate mice in the C57Bl/6 background. Mid-gestation embryos were recovered and subjected to tissue sectioning. Chimerism of live offspring was determined by evaluation of their mixed coat color.
Immunofluorescence. Cells were fixed in 4% paraformaldehyde for 20 min at room temperature and incubated overnight at 4° C. with primary antibodies against Oct-4 (BD Biosciences), β-catenin (BD Biosciences), Tuj-1 (BAbCO), cytokeratin (Sigma), glial fibrillary acidic protein, GFAP, (Dako), smooth muscle actin (Research Diagnostics Inc), α-fetoprotein (α-FP, Cell Sciences) and Tromal (Developmental Studies Hybridoma Bank). […] For the quantitative image analysis, fluorescent images from triplicate samples were taken by the Discovery1 system (Universal Imaging Corporation). The fluorescent objects were selected by the threshold function and evaluated in five regions of each well by quantification of pixel intensities and the object size by using MetaMorph software (Universal Imaging Corporation).

HESCs (H1) = test: Embryoid body formation from HESCs; type: cell-based, human
Protocol: Embryoid body (EB) formation. HESCs were harvested by using dispase (Invitrogen), plated on non-tissue culture treated dishes (approximately 10^7 cells/10 cm dish), and grown in non-conditioned medium for 7 d as described before (Sato et al., 2003, Molecular signature of human embryonic stem cells and its comparison with the mouse. Dev Biol 260, 404-413). The number of EBs was determined by counting EBs in 20 different fields at a low magnification (10×) using an Axiovert microscope (Zeiss). Experiments were repeated at least three times, and the average number as well as standard deviation were calculated. For the detection of differentiated derivatives by immunocytochemistry, EBs (day 7) were plated on collagen-coated 12-well plates to allow them to adhere, grown in DMEM containing 10% FBS to induce further differentiation for 7 d and fixed in 4% paraformaldehyde followed by immunostaining as shown below.
RT-PCR. Two μg of total RNA extracted from EBs (day 7) or mouse embryonic fibroblasts was reverse-transcribed using ThermoScript RT-PCR system (Invitrogen) according to the manufacturer's protocol. One μl of cDNA sample was PCR amplified with each gene-specific primers (shown below) using optimized PCR cycles to obtain amplified reactions in a linear range.

`O=C1Nc2cc(Br)ccc2/C1=C1/Nc2ccccc2/C1=N\O` [6-bromoindirubin-3′-oxime] was tested, and the “neurogenesis on stromal feeders (Tuj-1)” value (H1 cells) was “robust neurogenesis”, the Nanog transcript level [1] was “substantial level of Nanog transcripts was preserved” and the Oct-3/4 transcript level ([1]; compared to conditioned medium-treated cells) was “substantial level of the Oct-3/4 transcript was maintained”. For the same compound, the “Oct-3/4 expression at the cellular level” value (Oct-3/4; HESCs in non-conditioned medium, FIG. 4c) was “sustained Oct-3/4 expression”, the “Oct-3/4 expression by quantitative imaging analysis” value (Oct-3/4; versus conditioned medium treatment, data not shown) was “comparable level of Oct-3/4 expression” and the “nuclear accumulation of β-catenin” value (β-catenin) was “nuclear accumulation of β-catenin”. For the same compound, the “teratoma formation, germ layer derivatives” value (MESCs) was “generated teratomas consisting of all three germ layer-derived tissues”, the “coat-color chimerism of live offspring” value (CJ-GFP cells (MESCs); initial assessment, new-born animals) was “two of five new-born animals were chimeric” and the “incorporation of treated cells into embryonic tissues” value (CJ-GFP cells (MESCs); mid-gestation stage, immunohistochemistry, FIG. 6) was “incorporated into several embryonic tissues”. The “lineage-specific markers of EBs by RT-PCR” value (HESCs (H1); EBs day 7, FIG. 5b) was “developed into ectoderm (NeuroD and keratin), mesoderm (T gene) and endoderm (α-fetoprotein and GATA4) derivatives”, the “differentiation phenotype of adherent EBs by immunocytochemistry” value (HESCs (H1); EBs grown under adherent condition, FIG. 5c) was “wide variety of morphology and lineage-specific molecule expression” and the EBs formation (HESCs (H1); H1 cells after treatment, FIG. 5a) was “at a level comparable to that seen with conditioned medium-treated cells”.
